Assay [1] concerns the target T1, NK1 receptor (Homo sapiens, UniProt P25103).
T1 construct: endogenous in cells; host or cells: UC11 cells
The assay can be described thus: Antagonism of NK1 receptor mediated (SP-induced) phosphatidylinositol turnover in UC11 cells. The assay is classed as cell-based. As to the method: Tachykinin-mediated inositol phosphate accumulation was measured in UCll or SKLKB82#3 cells in the presence and absence of NK1 or NK2 receptor antagonists, respectively. Tissues were incubated in Krebs-Henseleit buffer at 37°C with 95% O2-5% CO2 gassing. Tissues were then incubated with fresh buffer containing 100 µCi of myo-[2-^3H(N)] inositol at 37°C for 60 min with gentle gassing. After washing twice at room temperature in 5 ml buffer containing 10 mM LiCl, tissues were incubated for 30 min at room temperature with a buffer change at 15 min. Buffer was removed and Krebs-Henseleit buffer (containing 40 µg/ml bacitracin, 4 µg/ml each of leupeptin and chymostatin, 0.1% bovine serum albumin and 10 mM each of thiorphan and LiCl) added. After 15 min, SP was added to UCll cells or NKA to SKLKB82#3 cells at various concentrations to start the reaction. After incubation for 60 min at room temperature the reaction was terminated by addition of 930 µl chloroform: methanol (1:2 by volume) to each tube, followed by 310 µl chloroform and 310 µl doubly distilled water. Samples were vortexed, centrifuged, and 0.9 ml of the aqueous (top) phase removed and added to 2 ml ddH2O. The mixture was vortexed and loaded onto a 50% Bio-Rad AG 1-X8 (formate form, 100-200 mesh) exchange column (Bio-Rad Laboratories, Hercules, CA). The columns were washed, in order, with: 1) 10 ml doubly distilled water, 2) 5 ml of 5 mM disodium tetraborate/60 mM sodium formate, and 3) 5 ml of 1 M ammonium formate/0.1 M formic acid. The third elution was collected and 1 ml counted in 7 ml scintillation fluid. A 50 µl aliquot of the organic (bottom) phase was removed, dried in a scintillation vial and counted in 7 ml scintillation fluid.
The ratio of DPM in the aqueous phase aliquot (total inositol phosphates) to the DPM in the 50 µl organic phase aliquot (total [^3H]inositol incorporated) was calculated for each sample. Data are expressed as a percent of agonist-induced accumulation of [^3H]-inositol phosphates over basal levels. The ratios in the presence of test compound and/or standards were compared to the ratios for control samples (i.e. no stimulating agonist). Dose-response graphs were constructed and the abilities of the test compounds to inhibit tachykinin-induced phosphatidylinositol turnover determined with the aid of a computer program. […] Data is expressed as percent stimulation of total inositol phosphate accumulation over basal levels and normalized to the maximum response produced by SP. […] Schild analysis is performed using dose response curves (such as those presented in Figures 1a and 1b) to obtain a value indicative of the strength of a competitive antagonist and is expressed as the pA2, which is the negative logarithm of the molar concentration of antagonist which reduces the effect of a dose of agonist to one-half of that expected at the dose of agonist. […]
Values are mean (95% confidence limits) derived from Schild analysis of 2-3 experiments per compound per receptor.

Assay [2] addresses T2, NK1 receptor (Cavia porcellus, UniProt P30547).
T2 construct: Tissues or cells were homogenized with a Polytron in 15 volumes of 50 mM Tris-HCl buffer; tissue Keystone Biologicals, Cleveland, OH; host or cells: guinea pig lung membranes
The assay can be described thus: Antagonism of iodinated tachykinin binding to NK1 receptor (125I-Bolton Hunter Lys-3 labeled substance P, guinea pig lung membranes). The protocol: (§1) The NK1 receptor affinity of proposed tachykinin antagonists was devaluated in guinea pig lungs (Keystone Biologicals, Cleveland, OH), affinity for the NK2 receptor evaluated in HSKR-1 cells (which are mouse 3T3 fibroblasts expressing the human jejunal NK2 receptor) and NK-3 receptor affinity was evaluated in freshly collected guinea pig cerebral cortex. Tissues or cells were homogenized with a Polytron in 15 volumes of 50 mM Tris-HCl buffer (pH 7.4, 4°C) and centrifuged. The pellet was resuspended in Tris-HCl buffer and was centrifuged; the pellet was washed twice by resuspension. The final pellet was resuspended at a concentration of 40 mg/ml for tissues (guinea pig lung and cerebral cortex) and 20 mg/ml for cells in incubation buffer and remained at room temperature for at least 15 min prior to use. Receptor binding was initiated by addition of 250 µl membrane preparation in duplicate to 0.1 nM of the following radioligands: ^125I-Bolton Hunter Lys-3 labeled substance P; ^125iodohistidyl-1-neurokinin A; and ^125I-Bolton Hunter labeled Lys-4 eledoisin in a final volume of 500 µl of buffer containing 50 mM Tris-HCl (pH 7.4 at room temperature), 0.1% bovine serum albumin, 2 mM MnCl2, 40 µg/ml bacitracin, 4 µg/ml leupeptin and chymostatin, 1 µM thiorphan and various doses of the putative tachykinin antagonists. Incubations were performed at room temperature for 90 min (NK1 receptor assays) or 2 hr (NK2 and NK3 receptor assays); binding was terminated by addition of 50 mM Tris-HCl buffer (pH 7.4, 4°C) and filtration under vacuum through GF/B filters presoaked with 0.1% polyethyleneimine (NK1 receptor assays) or 0.5% bovine serum albumin (NK2 and NK3 receptor assays). Filter bound radioactivity was quantitated in a gamma counter. Nonspecific binding was defined as binding in the presence of 1 µM substance P, neurokinin A, or eledoisin. Specific binding was calculated by subtracting nonspecific binding from total binding. Competition of iodinated SP, NKA, or eledoisin binding by test compounds or standards was expressed as a percentage of this maximum competition. IC50 values (concentration required to inhibit 50% of receptor binding) were generated for each of the test compounds by nonlinear regression using an iterative curve fitting program (GraphPAD Inplot, San Diego, CA).

The target in assay [3] is T3, human jejunal NK2 receptor (Homo sapiens, UniProt P21452).
T3 construct: expressed in transfected cells; host or cells: HSKR-1 cells (mouse 3T3 fibroblasts)
T3 sequence (P21452 1-398): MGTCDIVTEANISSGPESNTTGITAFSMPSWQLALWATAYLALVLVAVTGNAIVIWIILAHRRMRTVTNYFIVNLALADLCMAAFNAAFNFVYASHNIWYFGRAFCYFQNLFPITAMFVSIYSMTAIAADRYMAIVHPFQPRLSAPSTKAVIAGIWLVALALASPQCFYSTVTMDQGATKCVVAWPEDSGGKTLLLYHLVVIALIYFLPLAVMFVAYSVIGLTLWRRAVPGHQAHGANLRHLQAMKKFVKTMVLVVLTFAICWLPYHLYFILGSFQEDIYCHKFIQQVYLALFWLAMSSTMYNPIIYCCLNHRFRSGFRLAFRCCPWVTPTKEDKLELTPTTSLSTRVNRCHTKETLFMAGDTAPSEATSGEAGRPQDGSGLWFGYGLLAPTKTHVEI
The assay can be described thus: Antagonism of iodinated tachykinin binding to NK2 receptor (125iodohistidyl-1-neurokinin A, HSKR-1 cell membranes). The protocol:
as §1

The mark [4] stands for this setting: Schild analysis, SP in UC11 cells, mean (95% confidence limits), 2-3 experiments.

Structures are written as SMILES. Counter-ions that a name gives are not always drawn. Like-named read-outs stand apart in the source and are kept apart here.

T2 sequence (P30547 whole entry): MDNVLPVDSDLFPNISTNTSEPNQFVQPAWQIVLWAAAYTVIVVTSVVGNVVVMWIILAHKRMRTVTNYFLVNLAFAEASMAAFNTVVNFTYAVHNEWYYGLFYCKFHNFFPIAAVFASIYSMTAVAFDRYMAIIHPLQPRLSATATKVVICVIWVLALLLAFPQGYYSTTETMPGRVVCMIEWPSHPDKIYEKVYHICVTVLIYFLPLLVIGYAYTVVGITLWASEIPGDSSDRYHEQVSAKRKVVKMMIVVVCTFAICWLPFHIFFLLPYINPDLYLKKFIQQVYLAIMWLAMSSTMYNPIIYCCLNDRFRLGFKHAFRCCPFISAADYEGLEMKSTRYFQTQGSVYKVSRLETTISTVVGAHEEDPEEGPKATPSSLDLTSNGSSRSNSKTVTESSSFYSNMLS
T1 sequence (P25103 whole entry): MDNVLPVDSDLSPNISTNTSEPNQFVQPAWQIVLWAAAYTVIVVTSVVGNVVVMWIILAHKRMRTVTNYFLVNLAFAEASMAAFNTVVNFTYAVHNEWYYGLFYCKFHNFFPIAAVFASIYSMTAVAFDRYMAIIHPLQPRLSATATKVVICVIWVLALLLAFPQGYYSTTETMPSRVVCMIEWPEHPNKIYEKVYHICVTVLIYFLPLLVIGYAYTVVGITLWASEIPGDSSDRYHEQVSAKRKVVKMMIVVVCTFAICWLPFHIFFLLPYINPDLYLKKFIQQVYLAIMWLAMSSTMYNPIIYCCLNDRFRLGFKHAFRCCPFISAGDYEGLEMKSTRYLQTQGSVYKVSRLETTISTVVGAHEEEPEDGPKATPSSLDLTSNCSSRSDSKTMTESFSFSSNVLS

For orientation: IC50 means the concentration needed to halve the response being measured. For `COc1cc(C(=O)N2CCC(CCN3CCC(C(N)=O)(c4ccccc4)CC3)(c3ccc(Cl)c(Cl)c3)C2)cc(OC)c1OC` (racemic) [Example 3A, 1-[2-[3-(3,4-dichloro-phenyl-3-yl)-1-(3,4,5-trimethoxy-benzoyl)-pyrrolidin-3-yl]-ethyl] -4-phenyl-piperidine-4-carboxylic acid amide hydrochloride], at NK1 receptor [1] (setting [4]), the “NK-1 RECEPTOR -SLOPE” value is 0.90 (0.65-1.15). Also, the Kb on NK1 receptor [1] (Schild analysis, SP in UC11 cells, mean (95% confidence limits), 2-3 experiments, read-out: NK-1 RECEPTOR pA2 (converted)) is 12.3 nM. In addition, the 50% inhibitory concentration (IC50) on NK1 receptor [2] worked out at 5.97 nM; in assay [3], 21 nM.
Consider `COc1cc(C(=O)N2CCC(CCN3CCC(C(N)=O)(c4ccccc4)CC3)(c3ccc(Cl)c(Cl)c3)C2)cc(OC)c1OC` (stereo not shown) [Example 3, 1-[2-[3-(3,4-dichloro-phenyl)-1-(3,4,5-trimethoxy-benzoyl)-pyrrolidin-3-yl]-ethyl]-4-phenyl-piperidine-4-carboxylic acid amide], for which the “antagonism of the receptor mediated SP induced PI turnover” value at NK1 receptor [1] (UC11 cells, Figure 1a, result in words) was “dose related antagonism”. Also, the IC50 on NK1 receptor [2] was determined as 5 nM; in assay [3] it was 15 nM. Further, the “affinity for NK1 receptors” value on NK1 receptor [2] (result in words) is given as “high affinity”. In addition, the “affinity for NK2 receptors” value in assay [3] (result in words) is “high affinity”.
`COc1cccc(OC)c1C(=O)N1CCC(CCN2CCC(C(N)=O)(c3ccccc3)CC2)(c2ccc(Cl)c(Cl)c2)C1` (racemic) [Example 5A, 1-[2-[3-(3,4-dichloro-phenyl-3-yl)-1-(2,6-dimethoxy-benzoyl)-pyrrolidin-3-yl]-ethyl]-4-phenyl-piperidine-4-carboxylic acid amide hydrochloride] had a Kb on NK1 receptor [1] of 47.9 nM. Further, the “NK-1 RECEPTOR -SLOPE” value on NK1 receptor [1] (setting [4]) is listed as 1.17 (0.41-1.93). Moreover, the IC50 stood at 20 nM at NK1 receptor [2] and 40 nM in assay [3] (HSKR-1 cells (mouse 3T3 fibroblasts expressing human jejunal NK2 receptor), mean of several experiments, read-out: NK-2 IC50).

The record behind these values is patent EP0696280B1, “SUBSTITUTED PYRROLIDIN-3-YL-ALKYL-PIPERIDINES USEFUL AS TACHYKININ ANTAGONISTS” (MERRELL PHARMACEUTICALS INC., priority 1993, dated 1994).
